Test results from the NIST ThermoML archive (doi:10.1021/acs.jced.5b00536).
Values joined by “and” are separate entries in the source; they are usually repeats but may differ in a detail not shown here. Equal entries are not always repeated. Numbers after ± are expanded uncertainties.

Assay: xn = mol fraction of the nth substance listed
Conditions: x2 = 0.79; for electrical conductivity / mass density: 100 kPa, Liquid; for electrical conductivity: Alternating current cell with electrodes; for mass density: Buoyancy - hydrostatic balance; for surface tension liquid-gas: Maximal bubble pressure

[Ca+2].[F-].[F-] [calcium fluoride] + [F-].[Li+]
Conditions | electrical conductivity [S/m] | mass density | surface tension liquid-gas [mN/m]
1063.8 K | 0.053003 ± 4e-06 | – | –
1065.5 K | 0.053101 ± 4e-06 | – | –
1067.1 K | 0.053153 ± 4e-06 | – | –
1068.8 K | 0.05333 ± 0.00024 | – | –
1070.4 K | 0.05353 ± 0.00025 | – | –
1071.9 K | 0.05375 ± 0.00022 | – | –
1073.5 K | 0.05359 ± 0.00021 | – | –
1075.2 K | 0.0537 ± 0.00017 | – | –
1075.7 K | – | 2107.8 ± 12 kg/m3 | –
1075.9 K | – | 2107.3 ± 12 kg/m3 | –
1076.2 K | – | 2106.7 ± 12 kg/m3 and 2107.8 ± 12 kg/m3 | –
1076.7 K | – | 2106.6 ± 12 kg/m3 | –
1076.8 K | 0.05368 ± 0.0001 | 2106 ± 12 kg/m3 | –
1077.1 K | – | 2106 ± 12 kg/m3 | –
1077.5 K | – | 2105.4 ± 12 kg/m3 | –
1077.7 K | – | 2104.8 ± 12 kg/m3 | –
1078 K | – | 2104.8 ± 12 kg/m3 | –
1078.4 K | – | 2104.2 ± 12 kg/m3 | –
1078.5 K | 0.05386 ± 0.00024 | – | –
1078.7 K | – | 2104.1 ± 12 kg/m3 | –
1079.1 K | – | 2103.5 ± 12 kg/m3 | –
1079.4 K | – | 2103.5 ± 12 kg/m3 | –
1079.8 K | – | 2102.9 ± 8.3 kg/m3 | –
1080 K | – | 2102.9 ± 8.2 kg/m3 | –
1080.1 K | 0.05394 ± 0.00027 | – | –
1080.3 K | – | 2102.3 ± 8.2 kg/m3 | –
1080.7 K | – | 2101.7 ± 8.1 kg/m3 | –
1081.1 K | – | 2101.6 ± 8.1 kg/m3 | –
1081.4 K | – | 2101 ± 8.2 kg/m3 | –
1081.8 K | 0.054 ± 0.00035 | 2101 ± 8.1 kg/m3 | –
1082 K | – | 2100.4 ± 8.1 kg/m3 | –
1082.4 K | – | 2099.8 ± 8.1 kg/m3 | –
1082.9 K | – | 2099.7 ± 8.2 kg/m3 | –
1083.4 K | 0.0542 ± 0.00034 | – | –
1083.5 K | – | 2099.1 ± 8.2 kg/m3 | –
1083.6 K | – | 2099.1 ± 8.2 kg/m3 | –
1083.8 K | – | 2098.5 ± 8.1 kg/m3 | –
1084.3 K | – | 2098.5 ± 8.2 kg/m3 | –
1084.5 K | – | 2097.9 ± 8.1 kg/m3 | –
1085 K | – | 2097.8 ± 8 kg/m3 | –
1085.1 K | 0.05436 ± 0.00041 | – | –
1085.5 K | – | 2097.2 ± 8.1 kg/m3 | –
1085.9 K | – | 2096.6 ± 8.1 kg/m3 | –
1086.1 K | – | 2096.6 ± 8 kg/m3 | –
1086.4 K | – | 2096 ± 8 kg/m3 | –
1086.8 K | 0.05455 ± 0.00043 | – | –
1086.9 K | – | 2095.9 ± 7.6 kg/m3 | –
1087.2 K | – | 2095.3 ± 7.6 kg/m3 | –
1087.8 K | – | 2094.7 ± 7.6 kg/m3 | –
1088.2 K | – | 2094.7 ± 7.6 kg/m3 | –
1088.4 K | 0.05469 ± 0.00042 | – | –
1088.6 K | – | 2094.1 ± 7.6 kg/m3 | –
1088.8 K | – | 2094 ± 7.7 kg/m3 | –
1089.3 K | – | 2093.4 ± 7.7 kg/m3 | –
1089.5 K | – | 2092.8 ± 7.6 kg/m3 | –
1090 K | – | 2092.8 ± 7.6 kg/m3 | –
1090.1 K | 0.05496 ± 0.00044 | – | –
1090.5 K | – | 2092.2 ± 7.2 kg/m3 | –
1090.8 K | – | 2092.1 ± 7.3 kg/m3 | –
1091.2 K | – | 2093.7 ± 7.2 kg/m3 | –
1091.7 K | – | 2093.7 ± 7.3 kg/m3 | –
1091.8 K | 0.05506 ± 0.00042 | – | –
1091.9 K | – | 2093.1 ± 7.3 kg/m3 | –
1092.8 K | – | 2091.9 ± 7.4 kg/m3 and 2092.4 ± 7.4 kg/m3 | –
1093.1 K | – | 2091.3 ± 7.4 kg/m3 | –
1093.4 K | 0.05525 ± 0.0004 | – | –
1093.8 K | – | 2091.2 ± 7.3 kg/m3 | –
1094.1 K | – | 2090.6 ± 7.4 kg/m3 | –
1094.4 K | – | 2090.6 ± 7.4 kg/m3 | –
1094.8 K | – | 2092.8 ± 7.4 kg/m3 | –
1095 K | – | 2092.2 ± 7.4 kg/m3 | –
1095.1 K | 0.05547 ± 0.00036 | – | –
1095.5 K | – | 2092.1 ± 7.9 kg/m3 | –
1096.2 K | – | 2090.9 ± 7.9 kg/m3 | –
1096.3 K | – | 2090.9 ± 7.9 kg/m3 and 2091.5 ± 7.9 kg/m3 | –
1096.7 K | – | 2090.3 ± 7.9 kg/m3 | –
1096.8 K | 0.0556 ± 0.00039 | – | –
1096.9 K | – | 2089.7 ± 7.9 kg/m3 | –
1097.3 K | – | 2089.1 ± 7.8 kg/m3 | –
1097.6 K | – | 2089.1 ± 7.8 kg/m3 | –
1098 K | – | 2088.5 ± 7.9 kg/m3 | –
1098.4 K | – | 2087.9 ± 8 kg/m3 | –
1098.5 K | 0.05571 ± 0.00043 | – | –
1098.8 K | – | 2087.3 ± 8 kg/m3 | –
1099.1 K | – | 2087.2 ± 8.6 kg/m3 | –
1099.5 K | – | 2086.6 ± 8.5 kg/m3 | –
1099.9 K | – | 2086 ± 8.7 kg/m3 | –
1100.2 K | 0.05586 ± 0.00035 | 2086 ± 8.7 kg/m3 | –
1100.7 K | – | 2085.4 ± 8.6 kg/m3 | –
1101 K | – | 2084.8 ± 8.5 kg/m3 | –
1101.5 K | – | 2084.2 ± 8.5 kg/m3 | –
1101.8 K | – | 2084.1 ± 8.5 kg/m3 | –
1101.9 K | 0.05606 ± 0.00036 | – | –
1102.1 K | – | 2083.6 ± 8.5 kg/m3 | –
1102.6 K | – | 2082.9 ± 8.6 kg/m3 | –
1102.9 K | – | 2082.4 ± 8.5 kg/m3 | –
1103.2 K | – | 2082.3 ± 8.4 kg/m3 | –
1103.6 K | 0.05634 ± 0.00039 | – | –
1103.8 K | – | 2081.7 ± 8.4 kg/m3 | –
1104.2 K | – | 2081.1 ± 8.4 kg/m3 | –
1104.6 K | – | 2080.5 ± 8.4 kg/m3 | –
1105.2 K | – | 2079.9 ± 8.8 kg/m3 | –
1105.3 K | 0.05637 ± 0.00037 | – | –
1105.5 K | – | 2079.3 ± 8.7 kg/m3 | –
1105.7 K | – | 2079.2 ± 8.7 kg/m3 | –
1106.3 K | – | 2078.6 ± 8.9 kg/m3 | –
1106.6 K | – | 2078 ± 8.7 kg/m3 | –
1107 K | – | 2077.4 ± 8.7 kg/m3 | –
1107.1 K | 0.05654 ± 0.00038 | – | –
1107.6 K | – | 2077.4 ± 8.9 kg/m3 | –
1107.9 K | – | 2076.8 ± 8.9 kg/m3 | –
1108.5 K | – | 2076.1 ± 8.9 kg/m3 | –
1108.8 K | 0.05671 ± 0.00033 | 2076.1 ± 8.8 kg/m3 | –
1109.1 K | – | 2074.4 ± 8.8 kg/m3 | –
1109.5 K | – | 2073.8 ± 8.8 kg/m3 | –
1110 K | – | 2073.2 ± 8.7 kg/m3 | –
1110.3 K | – | 2073.1 ± 8.9 kg/m3 | –
1110.5 K | 0.05682 ± 0.00036 | – | –
1110.6 K | – | 2072 ± 9 kg/m3 | –
1111.2 K | – | 2071.9 ± 8.8 kg/m3 | –
1111.6 K | – | 2071.3 ± 8.8 kg/m3 | –
1111.8 K | – | 2070.8 ± 9.2 kg/m3 | –
1112 K | – | – | 221.4 ± 10
1112.3 K | 0.05703 ± 0.0004 | 2070.1 ± 9 kg/m3 | –
1112.8 K | – | 2069.5 ± 9.1 kg/m3 | –
1113 K | – | 2069.5 ± 9.2 kg/m3 | –
1113.5 K | – | 2068.9 ± 8.8 kg/m3 | –
1114 K | 0.05718 ± 0.00036 | – | –
1114.2 K | – | 2068.3 ± 7.4 kg/m3 | –
1114.3 K | – | 2068.2 ± 7.4 kg/m3 | –
1114.7 K | – | 2067.1 ± 7.4 kg/m3 and 2067.6 ± 7.4 kg/m3 | –
1114.9 K | – | 2066.5 ± 7.4 kg/m3 | –
1115.4 K | – | 2066.4 ± 7.5 kg/m3 | –
1115.7 K | 0.05729 ± 0.00038 | 2065.9 ± 7.5 kg/m3 | –
1115.9 K | – | 2065.3 ± 7.4 kg/m3 | –
1116.2 K | – | 2064.7 ± 7.4 kg/m3 | –
1116.7 K | – | 2064.6 ± 7.1 kg/m3 | –
1117 K | – | 2064 ± 7.1 kg/m3 | –
1117.4 K | 0.05756 ± 0.0004 | – | –
1117.5 K | – | 2063.4 ± 7.1 kg/m3 | –
1118 K | – | 2068.9 ± 7.1 kg/m3 | –
1118.4 K | – | 2068.3 ± 7.1 kg/m3 | –
1118.8 K | – | 2067.7 ± 7.1 kg/m3 | –
1119 K | – | 2067.7 ± 7.1 kg/m3 | –
1119.2 K | 0.05765 ± 0.00041 | – | –
1119.4 K | – | 2067.1 ± 7.1 kg/m3 | –
1119.7 K | – | 2066.5 ± 7.1 kg/m3 | –
1120.1 K | – | 2065.9 ± 7.1 kg/m3 | –
1120.5 K | – | 2065.8 ± 7.1 kg/m3 | –
1120.9 K | 0.0578 ± 0.00028 | – | –
1121 K | – | 2069.1 ± 7.1 kg/m3 | –
1121.2 K | – | 2068.5 ± 7.1 kg/m3 | –
1121.7 K | – | 2067.9 ± 7.1 kg/m3 | –
1122.2 K | – | 2067.3 ± 7.7 kg/m3 | –
1122.5 K | – | 2066.7 ± 7.7 kg/m3 | –
1122.7 K | 0.05808 ± 0.00029 | – | –
1123.3 K | – | 2066.1 ± 7.7 kg/m3 and 2066.6 ± 7.7 kg/m3 | –
1123.7 K | – | 2065.5 ± 7.6 kg/m3 | –
1124.4 K | 0.05824 ± 0.00033 | 2064.8 ± 7.6 kg/m3 | –
1124.8 K | – | 2064.2 ± 7.6 kg/m3 | –
1125.1 K | – | 2063.6 ± 7.1 kg/m3 | –
1126 K | – | 2063.5 ± 7.1 kg/m3 | –
1126.1 K | 0.05803 ± 0.00033 | – | –
1126.2 K | – | 2062.9 ± 7.1 kg/m3 | –
1126.3 K | – | 2062.4 ± 7.1 kg/m3 | –
1126.7 K | – | 2061.8 ± 7.1 kg/m3 | –
1127.5 K | – | 2061.1 ± 7.1 kg/m3 | –
1127.9 K | 0.05831 ± 0.00026 | 2060.5 ± 7.1 kg/m3 and 2061.1 ± 7.1 kg/m3 | –
1128.4 K | – | 2059.9 ± 7.1 kg/m3 | –
1128.8 K | – | 2059.9 ± 7.1 kg/m3 | –
1128.9 K | – | 2069.8 ± 7.1 kg/m3 | –
1129.5 K | 0.0585 ± 0.00025 | – | –
1129.8 K | – | 2069.1 ± 7.1 kg/m3 | –
1130.2 K | – | 2068.5 ± 7.1 kg/m3 | –
1130.3 K | – | 2068 ± 7.1 kg/m3 | –
1131 K | – | 2067.3 ± 7.1 kg/m3 | 218.4 ± 10
